# Laboratory results taken from ChEMBL document CHEMBL5154852, “Design, synthesis, and biological evaluations of substituted pyrazoles as pyrrolomycin analogues against staphylococcal biofilm” (Eur J Med Chem, 2022).
# Where “and” joins values, the source holds several entries; their conditions need not be identical. Equal entries are not always repeated. Calls of active or inactive are those of the source. The rule behind the calls is not given here.
# Columns and labels:
# [1] = system: Staphylococcus aureus; assay: Antibacterial activity against vancomycin-susceptible methicillin-susceptible Staphylococcus aureus Newman incubated for 24 hrs by broth microdilution method; assay type: functional
# [2] = system: Staphylococcus aureus; assay: Antimicrobial activity against methicillin-resistant Staphylococcus aureus USA300 LAC incubated for 24 hrs by broth microdilution method; assay type: functional
# [3] = system: Staphylococcus aureus; assay: Antibacterial activity against vancomycin-intermediate Staphylococcus aureus Mu50 incubated for 24 hrs by broth microdilution method; assay type: functional
# [4] = system: Staphylococcus aureus; assay: Antibiofilm activity against methicillin-resistant Staphylococcus aureus USA300 LAC assessed as decrease in biofilm formation at 0.0625 ug/ml measured by crystal violet staining assay; assay type: functional, organism-based; details: dose 0.0625 µg/ml
# [5] = Selectivity index, ratio of IC50 for L02 cell cytotoxicity over MIC for vancomycin-susceptible methicillin-susceptible Staphylococcus aureus Newman; assay type: toxicity; details: human, L02 cells
# [6] = Cytotoxicity against human L02 cells after 72 hrs by CCK-8 assay; assay type: toxicity, cell-based
# [7] = Metabolic stability in mouse liver microsomes assessed metabolic bioavailability at 0.1 uM in presence of NADPH measured by LC-MS/MS analysis; assay type: ADME, Microsome; details: read-out: Stability
# [8] = system: Enterococcus faecalis; assay: Antibacterial activity against vancomycin-resistant, teicoplanin resistant Enterococcus faecalis HS06188 incubated for 24 hrs by broth microdilution method; assay type: functional
# [9] = Metabolic stability in monkey liver microsomes assessed metabolic bioavailability at 0.1 uM in presence of NADPH measured by LC-MS/MS analysis; assay type: ADME, Macaca mulatta, Microsome; details: rhesus monkey, read-out: Stability
# [10] = system: Staphylococcus aureus; assay: Antimicrobial activity against methicillin-resistant Staphylococcus aureus USA400 MW2 incubated for 24 hrs by broth microdilution method; assay type: functional
# [11] = system: Enterococcus faecalis; assay: Antibacterial activity against vancomycin-resistant, teicoplanin sensitive Enterococcus faecalis VanB01 incubated for 24 hrs by broth microdilution method; assay type: functional
# [12] = Metabolic stability in human liver microsomes assessed metabolic bioavailability at 0.1 uM in presence of NADPH measured by LC-MS/MS analysis; assay type: ADME, Microsome; details: read-out: Stability
# [13] = system: Staphylococcus aureus; assay: Antimicrobial activity against methicillin and linezoid-resistant Staphylococcus aureus NRS271 incubated for 24 hrs by broth microdilution method; assay type: functional
# [14] = Metabolic stability in dog liver microsomes assessed metabolic bioavailability at 0.1 uM in presence of NADPH measured by LC-MS/MS analysis; assay type: ADME, Canis lupus familiaris, Microsome; details: read-out: Stability
# [15] = system: Staphylococcus aureus; assay: Antimicrobial activity against methicillin-resistant Staphylococcus aureus NRS100 incubated for 24 hrs by broth microdilution method; assay type: functional
# [16] = system: Enterococcus faecalis; assay: Antibacterial activity against vancomycin-resistant, teicoplanin sensitive Enterococcus faecalis HS08257 incubated for 24 hrs by broth microdilution method; assay type: functional
# [17] = system: Enterococcus faecalis; assay: Antibacterial activity against vancomycin-resistant, teicoplanin sensitive Enterococcus faecalis HS0847 incubated for 24 hrs by broth microdilution method; assay type: functional
# [18] = system: Enterococcus faecalis; assay: Antibacterial activity against vancomycin-resistant, teicoplanin resistant Enterococcus faecalis HS0649 incubated for 24 hrs by broth microdilution method; assay type: functional
Compound,MIC [1],MIC [2],MIC [3],other results
O=C1c2[nH]nc(C(F)(F)F)c2S(=O)(=O)c2c(Cl)cc(Cl)c(O)c21,128 µg/mL,256 µg/mL,256 µg/mL,–
N#Cc1cc(C(=O)c2cc(Cl)c(F)cc2O)[nH]n1,0.5 µg/mL,0.5 µg/mL,0.5 µg/mL,–
O=C1c2ccccc2S(=O)(=O)c2c(C(F)(F)F)n[nH]c21,> 256 µg/mL,> 256 µg/mL,> 256 µg/mL,–
N#Cc1n[nH]c2c(=O)c3ccccc3sc12,8 µg/mL,32 µg/mL,32 µg/mL,–
O=c1c2[nH]nc(C(F)(F)F)c2oc2c(Cl)cc(Cl)c(O)c12,1 µg/mL,2 µg/mL,1 µg/mL,–
N#Cc1n[nH]c2c(=O)c3c(O)c(Cl)cc(Cl)c3sc12,2 µg/mL,2 µg/mL,2 µg/mL,–
N#Cc1n[nH]c2c1S(=O)(=O)c1ccccc1C2=O,> 256 µg/mL,> 256 µg/mL,> 256 µg/mL,–
Cc1n[nH]c2c(=O)c3c(O)c(Cl)cc(Cl)c3oc12,> 256 µg/mL,> 256 µg/mL,> 256 µg/mL,–
O=c1c2[nH]nc(C(F)(F)F)c2sc2c(Cl)cc(Cl)c(O)c12,2 µg/mL,2 µg/mL,1 µg/mL,–
O=c1c2ccccc2sc2c(C(F)(F)F)n[nH]c12,> 256 µg/mL,> 256 µg/mL,> 256 µg/mL,–
O=C(c1cc(C(F)(F)F)n[nH]1)c1cc(F)c(F)cc1O,0.5 µg/mL,0.5 µg/mL,1 µg/mL,–
Cc1cc(C(=O)c2cc(C(F)(F)F)n[nH]2)c(O)cc1F,0.25 µg/mL,0.25 µg/mL,1 µg/mL,–
Cc1cc(C(=O)c2cc(C#N)n[nH]2)c(O)cc1F,0.5 µg/mL,0.5 µg/mL,0.25 µg/mL,–
N#Cc1cc(C(=O)c2cc(Cl)c(Cl)cc2O)[nH]n1,0.25 µg/mL,0.25 µg/mL,0.25 µg/mL,Activity [4]: Active; selectivity ratio [5]: > 12; IC50 at 72 h [6]: 10.7 µM and 3.02 µg/mL; Fh at 0.1 µM [7]: 10.2%; MIC [8]: > 128 µg/mL; Fh at 0.1 µM [9]: 85.6%; MIC [10]: < 0.125 µg/mL; MIC [11]: 1 µg/mL; Fh at 0.1 µM [12]: 69.7%; MIC [13]: 1 µg/mL; Fh at 0.1 µM [14]: 9.79%; MIC [15]: 0.5 µg/mL; MIC [16]: 0.25 µg/mL; MIC [17]: 0.5 µg/mL; MIC [18]: 0.5 µg/mL
O=C(c1cc(C(F)(F)F)n[nH]1)c1cc(Cl)c(Cl)cc1O,0.0625 µg/mL,0.0625 µg/mL,0.0312 µg/mL,Activity [4]: Active; selectivity ratio [5]: > 13; IC50 at 72 h [6]: 2.57 µM and 0.84 µg/mL; Fh at 0.1 µM [7]: 10.1%; MIC [8]: > 128 µg/mL; Fh at 0.1 µM [9]: 28.6%; MIC [10]: 0.25 µg/mL; MIC [11]: 0.5 µg/mL; Fh at 0.1 µM [12]: 42%; MIC [13]: > 128 µg/mL; Fh at 0.1 µM [14]: 7.07%; MIC [15]: 0.5 µg/mL; MIC [16]: < 0.125 µg/mL; MIC [17]: 0.25 µg/mL; MIC [18]: 0.5 µg/mL
O=C(O)c1n[nH]c2c(=O)c3c(O)c(Cl)cc(Cl)c3oc12,> 256 µg/mL,> 256 µg/mL,> 256 µg/mL,–
NC(=O)c1n[nH]c2c(=O)c3c(O)c(Cl)cc(Cl)c3oc12,> 256 µg/mL,> 256 µg/mL,> 256 µg/mL,–
N#Cc1n[nH]c2c(=O)c3c(O)c(Cl)cc(Cl)c3oc12,4 µg/mL,8 µg/mL,8 µg/mL,–
N#Cc1cc(C(=O)c2cc(Cl)cc(Cl)c2O)[nH]n1,2 µg/mL,2 µg/mL,2 µg/mL,–
O=C(O)c1cn(C2CC2)c2cc(N3CCNCC3)c(F)cc2c1=O [CIPROFLOXACIN],0.25 µg/mL,2 µg/mL,32 µg/mL,IC50 at 72 h [6]: 12.2 µM and 4.05 µg/mL
O=C(c1cc(C(F)(F)F)n[nH]1)c1cc(Cl)c(F)cc1O,0.25 µg/mL,0.25 µg/mL,0.25 µg/mL,MIC [8]: > 128 µg/mL; MIC [10]: 0.25 µg/mL; MIC [11]: 1 µg/mL; MIC [13]: > 128 µg/mL; MIC [15]: 0.25 µg/mL; MIC [16]: 0.5 µg/mL; MIC [17]: 0.5 µg/mL; MIC [18]: 1 µg/mL
CN[C@H](CC(C)C)C(=O)N[C@H]1C(=O)N[C@@H](CC(N)=O)C(=O)N[C@H]2C(=O)N[C@H]3C(=O)N[C@H](C(=O)N[C@H](C(=O)O)c4cc(O)cc(O)c4-c4cc3ccc4O)[C@H](O)c3ccc(c(Cl)c3)Oc3cc2cc(c3O[C@@H]2O[C@H](CO)[C@@H](O)[C@H](O)[C@H]2O[C@H]2C[C@](C)(N)[C@H](O)[C@H](C)O2)Oc2ccc(cc2Cl)[C@H]1O [VANCOMYCIN],–,–,8 µg/mL,IC50 at 72 h [6]: > 30 µM and > 43 µg/mL; MIC [8]: 2 µg/mL; MIC [10]: < 0.125 µg/mL; MIC [11]: 0.25 µg/mL; MIC [16]: < 0.125 µg/mL; MIC [17]: 0.25 µg/mL; MIC [18]: 0.5 µg/mL
COC(=O)c1n[nH]c2c(=O)c3c(O)c(Cl)cc(Cl)c3oc12,4 µg/mL,16 µg/mL,16 µg/mL,–
